According to PubChem BioAssay (NCI):
“And” between values parts separate entries of the source, which are not always exact repeats. Equal values may be shown once.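 These data come from cells grown in 96-well plates and exposed to compound for 48 hours at five concentrations. The concentration for 50% growth inhibition is given as GI50. TGI: concentration producing complete growth inhibition.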

Key:
Assay in all cases: NCI tumour cell line growth inhibition, 48 h
[1] = tested on: CAKI-1 renal
[2] = tested on: HOP-62 NSCLC
[3] = tested on: IGROV1 ovarian
[4] = tested on: K-562 leukemia
[5] = tested on: KM12 colon
[6] = tested on: OVCAR-3 ovarian
[7] = tested on: SK-MEL-2 melanoma
[8] = tested on: SK-OV-3 ovarian
[9] = tested on: SW-620 colon
[10] = tested on: T-47D breast

SMILES | GI50 [1] [µM] | TGI [1] | GI50 [2] [µM] | TGI [2] [µM] | GI50 [3] [µM] | TGI [3] [µM] | GI50 [4] [nM] | TGI [4] | GI50 [5] [µM] | TGI [5] | GI50 [6] [µM] | TGI [6] [µM] | GI50 [7] [nM] | TGI [7] [µM] | GI50 [8] [µM] | TGI [8] [µM] | GI50 [9] [µM] | TGI [9] [µM] | GI50 [10] [nM] | TGI [10] [µM]
COC(=O)[C@]12CC[C@@H](C)[C@H](C)[C@@H]1C1=CC[C@@H]3[C@@]4(C)C(C=O)=C[C@@](C)(COC(=O)c5ccco5)[C@@H]4C(=O)C[C@@]3(C)[C@]1(C)CC2 | 3.77 | > 100 µM | 18.9 | > 100 | 7.66 | > 100 | 3950 | > 100 µM | 4.26 | > 100 µM | 5.75 | > 100 | 500 | 2.78 | 43.1 | > 100 | 4.9 | > 100 | 3710 | 50.6
Cn1nnnc1N/N=C/c1ccccc1 | – | > 10 µM | – | > 10 | – | > 10 | – | > 10 µM | – | > 10 µM | – | > 10 | – | > 10 | – | > 10 | – | > 10 | – | > 10
C[C@@H]1CC[C@@H]2[C@@H]1[C@H](OC(=O)/C=C/c1ccccc1)[C@]1(C3CCCCC3)C[C@@H](NC(=O)CO)[C@@]2(C)O1 | 6.01 | 19.7 µM | 17.4 | 33.5 | 17.9 | 35.5 | 21100 | 45.1 µM | 16.3 | 32 µM | 17.3 | 34.2 | 16800 | 32.8 | 17.9 | 32.1 | 17.8 | 34.1 | 14300 | 30.8
CN(C)CCOc1ccc(/C(=C(/CCCl)c2ccccc2)c2ccccc2)cc1 | 0.979 | 3.73 µM and 29.7 µM | 0.993 | – | 1.33 | – | 1020 | 2.46 µM and 23.6 µM | 1.18 | 12.8 µM and 32.4 µM | 0.928 | – | 975 | – | 1.62 | 5.07 | 0.898 | – | 841 | –
O=[N+]([O-])c1ccc2c(N3CCC(CCCC4CCN(c5ncnc6cc([N+](=O)[O-])ccc56)CC4)CC3)ncnc2c1 | 5.29 | > 100 µM | > 32.2 | > 100 | > 62.8 | > 100 | 217 | > 100 µM | > 56.7 | > 100 µM | 21.6 | > 100 | > 52200 | > 85.3 | > 46.3 | > 100 | > 48 | > 100 | 454 | > 69.3
CN(C)c1ccc(/C=C2\N=C(c3ccc([N+](=O)[O-])cc3)OC2=O)cc1 | – | > 100 µM | – | > 100 | – | > 100 | – | > 100 µM | – | > 100 µM | – | > 100 | – | > 100 | – | > 100 | – | > 100 | – | > 100
O=C(O)CCC(=O)c1ccc2ccc3cccc4ccc1c2c34 | – | > 100 µM | – | > 100 | – | > 100 | – | > 100 µM | – | > 100 µM | – | > 100 | – | > 100 | – | > 100 | – | > 100 | – | > 100
